“Also recorded” adds a separate entry of the source.
Assays:
[1] = rating from cited sources, cited from earlier work
[2] = system: HFD-fed obese mice; test: Body weight and food intake in high fat diet (HFD)-fed obese mice, daily i.p. injection; assay type: in vivo, C57Bl/6J mice; conditions: three weeks, vs DMSO vehicle
Method: To investigate whether gambogic acid can act as an anti-obesity drug by increasing leptin sensitivity and reducing appetite, C57Bl/6J mice were placed on a high fat diet (HFD; Research Diets, D12451, 45 kcal % fat) feeding for 16 weeks. After establishment of obesity and leptin resistance, mice were administered gambogic acid (at 0.5 mg/kg, in 25 μl DMSO, once per day) and vehicle (DMSO, 25 μl) with intraperitoneal (i.p.) injection. The animals had free access to food and water unless otherwise stated. In all experiments, three days prior to drug administration, the animals went through an acclimation period where they were given DMSO (25 μl) to reduce the effect of stress created by i.p. injection. Following three days acclimation, mice were administered gambogic acid daily i.p. injections at 0.5 mg/kg for three weeks in 25 μl of DMSO as vehicle, whereas the control group received the same volume of DMSO. […] To investigate whether tanespimycin can act as an anti-obesity drug by increasing leptin sensitivity and reducing appetite, C57Bl/6J mice were placed on a high fat diet (HFD; Research Diets, D12451, 45 kcal % fat) feeding for 16 weeks. After establishment of obesity and leptin resistance, mice were administered tanespimycin (at 15 mg/kg, in 25 μl DMSO, once per day) and vehicle (DMSO, 25 μl) with intraperitoneal (i.p.) injection. The animals had free access to food and water unless otherwise stated. In all experiments, three days prior to drug administration, the animals went through an acclimation period where they were given DMSO (25 μ1) to reduce the effect of stress created by i.p. injection. Following three days acclimation, mice were administered tanespimycin daily i.p. injections at 15 mg/kg for three weeks in 25 μl of DMSO as vehicle, whereas the control group received the same volume of DMSO. […] To investigate whether NVP-AUY922 can act as an anti-obesity drug by increasing leptin sensitivity and reducing appetite, C57Bl/6J mice were placed on a high fat diet (HFD; Research Diets, D12451, 45 kcal % fat) feeding for 16 weeks. After establishment of obesity and leptin resistance, mice were administered NVP-AUY922 (at 15 mg/kg, in 25 μl DMSO, once per day) and vehicle (DMSO, 25 μl) with intraperitoneal (i.p.) injection. The animals had free access to food and water unless otherwise stated. In all experiments, three days prior to drug administration, the animals went through an acclimation period where they were given DMSO (25 μ1) to reduce the effect of stress created by i.p. injection. Following three days acclimation, mice were administered NVP-AUY922 daily i.p. injections at 15 mg/kg for three weeks in 25 μl of DMSO as vehicle, whereas the control group received the same volume of DMSO.

[3] = system: lean mice; test: Body weight and food intake in 10-week old lean mice on chow diet, i.p. injection; assay type: in vivo; conditions: three weeks
Method: Gambogic acid was administered to 10-week old lean mice on chow diet at 0.5 mg/kg for three weeks by i.p. injections. […] Tanespimycin was administered to 10-week old lean mice on chow diet at 15 mg/kg for three weeks by i.p. injections. […] NVP-AUY922 was administered to 10-week old lean mice on chow diet at 15 mg/kg for three weeks by i.p. injections.

[4] = system: leptin receptor deficient (db/db) mice; test: Body weight and food intake in leptin receptor deficient (db/db) mice; assay type: in vivo; conditions: 0.5 mg/kg once a day
Method: To explore whether gambogic acid's effect is leptin dependent, gambogic acid (0.5 mg/kg, once a day, in 25μ1 DMSO) was administered to leptin receptor deficient (db/db) mice.

[5] = 0.5 mg/kg i.p. once per day, 0.5 mg/kg

Q: For [Cr] [Chromium], which Safety [1] is on record?
A: The Safety was “Likely safe”.

Q: With CCNC(=O)c1noc(-c2cc(C(C)C)c(O)cc2O)c1-c1ccc(CN2CCOCC2)cc1 [NVP-AUY922] as the compound, how does the body weight ([2]; 15 mg/kg i.p. once per day) read?
A: The body weight was “significantly decreased”.

Q: What about the food intake ([3]; 15 mg/kg i.p.) of the same compound?
A: Its food intake is “failed to induce bodyweight loss or food intake”.

Q: And the body weight ([3]; 15 mg/kg i.p., 15 mg/kg)?
A: Its body weight is “little or no decrease; also recorded: failed to induce bodyweight loss”.

Q: What does the source list for CC(C)=CCC[C@]1(C)C=Cc2c(O)c3c(c(CC=C(C)C)c2O1)O[C@]12C(=C[C@@H]4C[C@H]1C(C)(C)O[C@@]2(C/C=C(/C)C(=O)O)C4=O)C3=O [gambogic acid]?
A: body weight [2, 5]: significantly decreased; also recorded: decreased body weight; food intake [2, 5]: significantly decreased; food intake ([2]; 0.5 mg/kg i.p. once per day, listed as SR-03, 0.5 mg/kg): significant decrease; food intake [4]: continued to increase similar to the vehicle treated group; body weight ([4]; 0.5 mg/kg): continued to increase similar to the vehicle treated group; also recorded: not in db/db mice; body weight ([3]; 0.5 mg/kg i.p., 0.5 mg/kg): little or no decrease; also recorded: failed to induce bodyweight loss; food intake ([3]; 0.5 mg/kg i.p., 0.5 mg/kg): failed to induce bodyweight loss or food intake; food intake ([3]; 0.5 mg/kg i.p., listed as SR-03, 0.5 mg/kg): little or no effect

Q: For Conjugated linoleic acid, which Safety [1] is on record?
A: The Safety was “Possibly safe”.

Q: What about the Effectiveness ([1]; weight loss) of the same compound?
A: The Effectiveness was “Possibly effective”.

Reference: patent US20170209408A1, “HSP90 INHIBITORS FOR THE TREATMENT OF OBESITY AND METHODS OF USE THEREOF” (The Children's Medical Center Corporation, priority 2014, published 2017)
